Laboratory results: US11512079B2, “Heterocycle substituted pyridine derivative antifungal agents” (Amplyx Pharmaceuticals, Inc., priority 2017, dated 2022)
In brackets after ≈: the same amount, converted by molar mass.

Tests used:
C. gattii WM276 = assay: Antifungal susceptibility testing, CLSI broth microdilution (Example 496/497); assay type: cell-based, Cryptococcus gattii; conditions: 50% reduction in fungal growth
From the text: (§1) Isolates tested. C. neoformans strains H99, DUMC 118.00, DUMC 158.03 and C. gattii strains R272, and RSA-MW-3515 were obtained from Duke University. C. albicans 90028, A. fumigatus MYA3626, C. neoformans 14116, C. neoformans 76484 and the pathogenic Cryptococcus reference strains panel (ATCC MP-11) were obtained from American Type Culture Collection (ATCC, Manassas, Va., USA). The MP-11 panel consists of strains representing eight molecular types and three subtypes of C. neoformans and C. gattii.
(§2) Antifungal susceptibility testing. To establish antimicrobial activity, broth microdilution susceptibility testing was performed according to Clinical and Laboratory Standards Institute (CLSI) guidelines M27-A3 for yeasts and M38-A2 for molds. Compound 2 and analogs were first diluted in DMSO to obtain intermediate dilutions. These were further diluted in microtiter plates to obtain a final concentration of 2 to 0.002 μg/mL. 1 μl of DMSO was added to “No drug” control wells. The solutions were mixed on a plate shaker for 10 mins and plates incubated at 35° C. for 40 to 48 h (C. albicans, A. fumigatus) and 72 h (C. neoformans). The minimum concentration that led to 50% reduction in fungal growth as compared to the control (with the aid of a reading mirror) was determined as the minimum inhibitory concentration (MIC) for C. albicans and C. neoformans. The minimum concentration that led to shortening of hyphae as compared to hyphal growth in DMSO control wells was determined as the minimum effective concentration (MEC) for A. fumigatus (as read for echinocandins). The use of the MIC and MEC endpoints for Compound 2 against yeasts and molds, respectively has been described previously.

C. neoformans strain H99 [1] = assay: Murine model of cryptococcal meningitis, Compound 1 alone and with FLC (no ABT), CD-1 mice; assay type: in vivo, Cryptococcus neoformans; conditions: Compound 1 390 mg/kg PO thrice daily or FLC 80 mg/kg/day IP, 7 days, n=10
Description: Treatment was initiated within 1 h after infection.
Mice were weighed daily and observed for acute and chronic adverse symptoms. […] Fungal burden data were log10 transformed and evaluated using Kruskal-Wallis tests with Dunn's Multiple Comparison Test for Post-hoc analysis (Prism 5; GraphPad Software, Inc., San Diego, Calif.).

C. neoformans H99 [2] = assay: Antifungal susceptibility testing, CLSI broth microdilution (Example 496/497); assay type: cell-based, Cryptococcus neoformans; conditions: for MIC: Cryptococcus neoformans, H99, 72 h, read-out: MIC C. neoformans H99; for MIC C. neoformans H99: 50% reduction in fungal growth, 72 h, 35° C.
From the text: as §1, §2

[3] = test system: strains of C. neoformans and C. gattii; assay: Activity vs Cryptococcus, summary over the strains tested; assay type: cell-based, Cryptococcus neoformans and Cryptococcus gattii; conditions: for MIC90: panel of 18 isolates of C. neoformans and C. gattii
From the text: (§3) The activity of Gwt1 inhibitors against susceptible and FLC non-susceptible/resistant strains.
as §1
(§4) Antifungal susceptibility testing. To establish antimicrobial activity, broth microdilution susceptibility testing was performed according to Clinical and Laboratory Standards Institute (CLSI) guidelines M27-A3 for yeasts and M38-A2 for molds. Compound 2 and analogs were first diluted in DMSO to obtain intermediate dilutions. These were further diluted in microtiter plates to obtain a final concentration of 2 to 0.002 μg/mL. 1 μl of DMSO was added to “No drug” control wells. The solutions were mixed on a plate shaker for 10 mins and plates incubated at 35° C. for 40 to 48 h (C. albicans, A. fumigatus) and 72 h (C. neoformans). The minimum concentration that led to 50% reduction in fungal growth as compared to the control (with the aid of a reading mirror) was determined as the minimum inhibitory concentration (MIC) for C. albicans and C. neoformans.

[4] = mouse, in vivo; cited from earlier work
C. neoformans H99 [5] = assay: Synergy with FLC, standard microtiter checkerboard dilution; assay type: cell-based, Cryptococcus neoformans; conditions: synergy = FICI <0.5, MIC read at 50% inhibition
Description: Gwt1 inhibitors are synergistic with FLC. […] Importantly, no antagonism was observed.
as §2

C. albicans 90028 = assay: Antifungal susceptibility testing, CLSI broth microdilution (Example 496/497); assay type: cell-based, Candida albicans; conditions: MIC, 50% reduction in growth, 40 to 48 h
From the text: as §1, §2

[6] = test system: Candida tropicalis strains; conditions: cited from earlier work
A. fumigatus MYA3626 = assay: Antifungal susceptibility testing, CLSI broth microdilution (Example 496/497); assay type: cell-based, Aspergillus fumigatus; conditions: MEC, shortening of hyphae, 40 to 48 h
From the text: as §1, §2

strains of C. albicans = conditions: cited from earlier work
[7] = test system: 46 strains of C. neoformans; conditions: global study; cited from earlier work
C. neoformans strain H99 [8] = assay: Delayed treatment model of cryptococcal meningitis, CD-1 mice; assay type: in vivo, Cryptococcus neoformans; conditions: treatment from 24 h after infection, 7 days; prodrug 60 mg/kg IP QD with 100 mg/kg ABT PO; AMB 3 mg/kg IP; n=5
Description: Infection was initiated on Day 1 and treatment was initiated 24 h later (Day 2) rather than 1 h. Treatments were administered for 7 days (final dose on Day 8) and mice were sacrificed on Day 9 for CFU enumeration.
Delayed treatment model. […] Fungal burden data were log10 transformed and evaluated using Kruskal-Wallis tests with Dunn's Multiple Comparison Test for Post-hoc analysis (Prism 5; GraphPad Software, Inc., San Diego, Calif.). A P value of ≤0.05 is considered statistically significant

[9] = test system: C. neoformans US isolates; conditions: cited from earlier work
C. gattii isolates = assay: Activity vs susceptible and FLC non-susceptible/resistant strains, broth microdilution; assay type: cell-based, Cryptococcus gattii
From the text: as §3, §1, §4

C. neoformans isolates = assay: as above; assay type: cell-based, Cryptococcus neoformans
From the text: as §3, §1, §4

In the case of `OC(Cn1cncn1)(Cn1cncn1)c1ccc(F)cc1F` [FLC, fluconazole], the MIC (C. gattii WM276; Cryptococcus gattii, WM276) is reported as 1 µg/mL (≈ 3.27 µM), the “reduction in lung fungal burden vs untreated control, monotherapy” value (C. neoformans strain H99 [1]) is reported as 1.30 log10 CFU/g and the MIC (C. neoformans H99 [2]) is reported as 2 µg/mL (≈ 6.53 µM).
For `Nc1ncccc1-c1cc(Cc2ccc(COc3ccccn3)cc2)no1` [Compound 2], the MIC90 [3] is listed as 0.5 µg/mL (≈ 1.4 µM), the “MIC C. gattii WM276” value (C. gattii WM276) is listed as 0.125 µg/mL (≈ 0.349 µM) and the half-life in mice [4] is listed as 1.40 to 2.75 h. For the same compound, the “MIC C. neoformans H99” value (C. neoformans H99 [2]) was 0.25 µg/mL (≈ 0.698 µM), the “FICI in combination with FLC” value (C. neoformans H99 [5]) was 0.37 and the “MIC or MEC C. albicans 90028” value (C. albicans 90028) was 0.008 µg/mL (≈ 0.0223 µM). The “strains with synergy with FLC” value [6] was 9 of 10, the “MIC or MEC A. fumigatus MYA3626” value (A. fumigatus MYA3626) was 0.008 µg/mL (≈ 0.0223 µM) and the “strains with synergy with FLC” value (strains of C. albicans) was 2 of 20.
With `Nc1ncccc1-c1cc(Cc2ccc(OCc3ccccc3)cc2)no1` the MIC (C. neoformans H99 [2]) was 0.031 µg/mL (≈ 0.0867 µM), the “fold improved anti-C. neoformans H99 activity compared to Compound 2” value (C. neoformans H99 [2]; from MIC values) was 8 fold and the “FICI in combination with FLC” value (C. neoformans H99 [5]) was 0.37.
In the case of `OC(Cn1cncn1)(Cn1cncn1)c1ccc(F)cc1F` [FUC], the “MIC90 versus 46 strains of C. neoformans” value [7] is listed as 4 µg/mL.
In the case of `OC(Cn1cncn1)(Cn1cncn1)c1ccc(F)cc1F` [fluconazole, Fluconazole], the “reduction in brain fungal burden vs control group, monotherapy” value (C. neoformans strain H99 [1]) is reported as 1.04 log10 CFU/g.
For `C[C@@H]1[C@H](O)[C@@H](C)/C=C/C=C/C=C/C=C/C=C/C=C/C=C/[C@H](O[C@@H]2O[C@H](C)[C@@H](O)[C@H](N)[C@@H]2O)C[C@@H]2O[C@](O)(C[C@@H](O)C[C@@H](O)[C@H](O)CC[C@@H](O)C[C@@H](O)CC(=O)O[C@H]1C)C[C@H](O)[C@H]2C(=O)O` [AMB, amphotericin B, reference compound], the “MIC GEOMEAN” value ([3]; geometric mean over the 18 isolates of C. neoformans and C. gattii) was 0.215 µg/mL (≈ 0.233 µM), the MIC90 [3] was 0.25 µg/mL (≈ 0.271 µM) and the “MIC C. gattii WM276” value (C. gattii WM276) was 0.25 µg/mL (≈ 0.271 µM). For the same compound, the “reduction of log10 CFU/g lung vs untreated control, delayed treatment” value (C. neoformans strain H99 [8]) was 4.02 log10 CFU/g, the “MIC90 versus C. neoformans, US isolates” value [9] was 2 µg/mL (≈ 2.16 µM) and the MIC (C. gattii isolates; C. gattii MYA-4093) was 0.25 µg/mL (≈ 0.271 µM). For the same compound, the MIC (C. gattii isolates; C. gattii MYA-4094) was 0.25 µg/mL (≈ 0.271 µM), the MIC (C. gattii isolates; C. gattii MYA-4560) was 0.063 µg/mL (≈ 0.0682 µM) and the MIC (C. gattii isolates; C. gattii MYA-4561) was 0.25 µg/mL (≈ 0.271 µM). For the same compound, the MIC (C. gattii isolates; C. gattii MYA-4562) was 0.25 µg/mL (≈ 0.271 µM), the MIC (C. gattii isolates; C. gattii MYA-4563) was 0.125 µg/mL (≈ 0.135 µM) and the MIC (C. gattii isolates; C. gattii MYA-4877) was 0.25 µg/mL (≈ 0.271 µM). For the same compound, the MIC (C. gattii isolates; C. gattii RSA-MW-3615 (FLC-resistant)) was 0.25 µg/mL (≈ 0.271 µM), the “MIC C. neoformans H99” value (C. neoformans H99 [2]) was 0.25 µg/mL (≈ 0.271 µM) and the “MIC or MEC C. albicans 90028” value (C. albicans 90028) was 1 µg/mL (≈ 1.08 µM). The MIC (C. neoformans isolates; C. neoformans 14116) was 0.25 µg/mL (≈ 0.271 µM), the MIC (C. neoformans isolates; C. neoformans 76484) was 0.25 µg/mL (≈ 0.271 µM) and the MIC (C. neoformans isolates; C. neoformans DUMC 118.00 (FLC-resistant)) was 0.25 µg/mL (≈ 0.271 µM). For the same compound, the MIC (C. neoformans isolates; C. neoformans DUMC 158.03 (FLC-resistant)) was 1 µg/mL (≈ 1.08 µM), the MIC (C. neoformans isolates; C. neoformans H99) was 0.25 µg/mL (≈ 0.271 µM) and the MIC (C. neoformans isolates; C. neoformans MYA-4564) was 0.25 µg/mL (≈ 0.271 µM). It also gave an MIC (C. neoformans isolates; C. neoformans MYA-4565) of 0.125 µg/mL (≈ 0.135 µM), an MIC (C. neoformans isolates; C. neoformans MYA-4566) of 0.25 µg/mL (≈ 0.271 µM) and an MIC (C. neoformans isolates; C. neoformans MYA-4567) of 0.25 µg/mL (≈ 0.271 µM). For the same compound, the “MIC or MEC A. fumigatus MYA3626” value (A. fumigatus MYA3626) was 1 µg/mL (≈ 1.08 µM).
For `C[C@@H](c1nc(-c2ccc(C#N)cc2)cs1)[C@](O)(Cn1cncn1)c1cc(F)ccc1F` [isavuconazole], the “MIC90 versus 46 strains of C. neoformans” value [7] is given as 0.06 µg/mL.
